2 compounds from patent US20240023549A1 (published 2024) can be followed below.

As a reminder, the melting point is the temperature, or range, at which the solid turns liquid.

Compound `CCN(C)/C=N/c1cc(C)c(C(=O)Nc2ccccc2)cc1C` came in with a melting point of 147 to 149 °C.

In the case of `CCN(C)/C=N/c1cc(C)c(C(=O)n2ccc3cc(C(F)(F)F)ccc32)cc1C`, the melting point lay in the range of 89 to 92 °C.
